Results on six compounds are retold here after PMC9229798, “Antioxidant Activity and Cytotoxicity of Aromatic Oligosulfides” (Molecules, 2022).

The structures appear in SMILES notation. “And” between values parts separate entries of the source, which are not always exact repeats. Equal values may be shown once. Read-outs that look alike come from different tables or passages of the source.

One data set deals with MCF-7. Details: method as in doi:10.3906/kim-1904-40. Particulars: CLC-Pred, cited from earlier work; for Cytotoxicity MCF-7, Pi: probability of lack of activity; for Cytotoxicity MCF-7, Pa: probability of presence of activity.
On the set-up of data set [1]: method as in doi:10.3906/kim-1904-40. Particulars: Trolox equivalents; cited from earlier work.
For data set [2] the following is noted: ferrozine–Fe2+ complex formation; cited from earlier work.
On the set-up of data set [3]: method as in doi:10.3906/kim-1904-40. The settings on record: adrenaline autoxidation in alkaline buffer; cited from earlier work.
In another data set the test system is SOD. Also noted: method as in doi:10.3906/kim-1904-40. Particulars: adrenaline oxidation with biopreparation; cited from earlier work.
Details of data set [4]: method as in doi:10.1016/j.arabjc.2021.103068. The settings on record: 1 mmol/L additive, 65 °C; cited from earlier work.
Details of data set [5]: method as in doi:10.1016/j.arabjc.2021.103068. The settings on record: oleic acid, 1 mmol/L additive, 65 °C; cited from earlier work.
On the set-up of data set [6]: method as in doi:10.1016/j.arabjc.2021.103068. The settings on record: all stages of LPO; cited from earlier work.
A short description of data set [7]: CUPRAC assay (cupric reducing antioxidant capacity). Particulars: Trolox equivalents; compound 0.5 mM, 30 min. The method, then:
Antioxidant activity can be evaluated by the CUPRAC test (cupric reducing antioxidant capacity) based on the ability of the compound to reduce Cu^2+ in complex with 2,9-dimethyl-1,10-phenanthroline (neocuproin). The antioxidant capacity of compounds 1–6 in the CUPRAC test was measured in equivalents of the water-soluble analogue of vitamin E—Trolox (TEACCUPRAC) (Table 2). […] The TEACCUPRAC values of disulfides 4 and 6 were quite close and indicated the manifestation of antioxidant activity mainly due to the presence of HO-groups. The slightly lower activity of compound 4 was explained by the absence of tert-butyl groups in its structure.
Neocuproine (2,9-dimethyl-1,10-phenanthroline) and Trolox were used with no further purification. The method proposed by Apak et al. was used with slight modification. For these measurements, 0.05 mL of CuCl2 solution (0.01 M), 0.05 mL of MeOH neocuproine solution (7.5 mM) and 0.05 mL of ammonium acetate buffer solution (1 M) were added to a test tube, followed by mixing with the 0.05 mL tested compounds (0.5 mM). The mixtures were kept at room temperature for 30 min. Absorbance was measured at 450 nm against a reagent blank. The results were presented in Trolox equivalents (Trolox equivalent antioxidant capacity, TEAC) obtained using absorbance data, and the linear calibration curve was plotted as absorbance vs. Trolox concentration.

The nature of data set [8]: LOOH accumulation in non-enzymatic peroxide oxidation of oleic acid. The settings on record: 65 °C; for LOOH, k0/k1 (relative rate constant of LOOH formation): 1 mmol/L additive, 3 h. The procedure: (§1) The total antioxidant activity of compounds 1–6 during the oxidation of oleic acid with atmospheric oxygen at 65 °C for 3 h was determined by standard methods according to the level of accumulation of the main metabolites. Hydroperoxides as primary products (LOOH) and secondary LPO carbonyl products formed colored complexes with thiobarbituric acid (TBARS).
(§2) The kinetics of LOOH and TBARS formation was similar in the control test and in the presence of the studied compounds. The exponential kinetic curves of LOOH accumulation in oleic acid corresponded to the equation CLOOH = a × e^kt with correlation coefficients close to 1. It indicated a pseudo-first order of reaction in the substrate, inherent in a radical process with degenerate chain branching (Figure 2). The kinetic curves of secondary carbonyl products were linear and corresponded to the equation CTBARS = kt + b, with correlation coefficients close to 1 (Figure 3).
The determination of oleic acid oxidation level was performed by the kinetic measurement of the total concentration of the corresponding isomeric LOOH using iodometric titration. The oxidation of constant volume of the acid (15 mL) was carried out in a thermostatic cell using an air flow at 65 °C during 3 h. The oxidation proceeded in the conditions, the oxidation rate was independent of the air volume passing through the cell.
The concentrations of the additives were 1 mM compared with the initial concentration of LOOH in the reaction mixture. Oleic acid (1 mL), CHCl3 (12 mL), glacial AcOH (18 mL), and freshly prepared cold-saturated KI solution (1 mL) were placed in a flask and shaken for 2 min. Then distilled water (100 mL) and a 1% starch solution (1 mL) were added and the resulting mixture was immediately titrated with Na2S2O3 solution (0.01 N). Iodine released in an amount equivalent to that of LOOH was titrated with a standard thiosulfate solution. At the same time, a control test for reagents was carried out: all the reagents except for oleic acid were added to the flask. The LOOH concentration was calculated according to the following formula:
[LOOH] = [(Vs − Vc) × 0.001269 × K × 100]/m, where vs. is the volume of 0.01 N Na2S2O3 solution, consumed during the titration of working sample, mL; Vc is the volume of 0.01 N Na2S2O3 solution, consumed during the titration of control, mL; K is the conversion factor to exactly 0.01 N Na2S2O3 solution; m is the mass of studied oleic acid; and 0.001269 is the amount of I2 expressed in g, equivalent to 1 mL of 0.01 N Na2S2O3 solution. The [LOOH, mmol/L] content equal to 1% corresponded to 78.7 mM of active O2 per 1 L of lipids.

Data set [9] in a line: TBARS accumulation in oleic acid oxidation. Particulars: 1 mmol/L additive, 65 °C, 3 h. The method, then:
as §1, §2
The accumulation rate for the final oxidation products (TBARS) was determined according to a modified standard method. Samples (0.01 mL) of oleic acid were taken from the thermostat every 30 min. They were introduced into a test tube containing a mixture of Tris buffer (0.8 mL), distilled water (1.2 mL), and freshly prepared thiobarbituric acid solution (0.8%, 1 mL). The tube was placed for 10 min in a boiling water bath, and after cooling, the absorption of the samples was measured in comparison with that of the control at λ = 532 nm. A similar mixture, but without added oleic acid, was used as the control. The concentration of carbonyl compounds was calculated according to the formula:
[TBARS] = (E × 3)/0.156, where [TBARS] is the content of carbonyl compounds, nM; E is the extinction of a sample relative to the control; 3 is the sample volume, mL; and 0.156 is the extinction of malondialdehyde (1 nmol) dissolved in 1 mL at λ = 532 nm.

For the compound `c1ccc(SSc2ccccc2)cc1` [Compound 5, diphenyl disulfide], in the data set with MCF-7, the “Cytotoxicity MCF-7, Pi” value was 0.005 and the “Cytotoxicity MCF-7, Pa” value was 0.882. In addition, the “TEAC CUPRAC” value in data set [1] was 0.10 ± 0.01. For the same compound, the “FIC, % of Inhibition” value in [2] is listed as 73.7 ± 2.1 %. Also, the “Antiradical Activity, % Inhibition” value in data set [3] is given as 56 ± 2.9 %. Besides, the “SOD Activity of Liver Sturgeon, % Inhibition” value with SOD is 61 ± 4.8 %. Moreover, the “LOOH, k0/k1 (relative rate constant of LOOH formation)” value in [4] is reported as 0.79 ± 0.11. The “TBARS, % Inhibition” value in data set [5] is listed as 24.6 ± 0.29 %. In data set [6], the “anti-/prooxidant effect in liver LPO” value was “prolonged prooxidant activity”.

`CC(C)(C)c1cc(SSc2cc(C(C)(C)C)c(O)c(C(C)(C)C)c2)cc(C(C)(C)C)c1O` [Compound 6, bis(3,5-di-tert-butyl-4-hydroxyphenyl) disulfide]: in the data set with MCF-7, the “Cytotoxicity MCF-7, Pi” value is reported as 0.082 and the “Cytotoxicity MCF-7, Pa” value is on record as 0.403. Moreover, the “TEAC CUPRAC” value in [1] is recorded as 2.04 ± 0.05. Moreover, in data set [2], the “FIC, % of Inhibition” value is on record as 28.9 ± 1.3 %. Also, the “Antiradical Activity, % Inhibition” value in data set [3] was 37 ± 4.8 %. Besides, the “SOD Activity of Liver Sturgeon, % Inhibition” value in the data set on SOD is 85 ± 3.0 %. Also, in data set [4], the “LOOH, k0/k1 (relative rate constant of LOOH formation)” value is 0.49 ± 0.05. Further, the “TBARS, % Inhibition” value in data set [5] is given as 73.1 ± 1.30 %. Further, in [6], the “anti-/prooxidant effect in liver LPO” value is given as “pronounced antioxidant effect”.

`Oc1ccc(SSc2ccc(O)cc2)cc1` [Compound 4, 4,4′-dihydroxydiphenyl disulfide]: the “TEAC CUPRAC” value in data set [7] is 1.8 and 1.80 ± 0.06. In addition, in data set [8], the “LOOH, k0/k1 (relative rate constant of LOOH formation)” value stood at 0.61 ± 0.03. For the same compound, in data set [9], the “TBARS, % Inhibition” value is given as 39.0 ± 0.49%.

In the case of `COc1ccc(SSc2ccc(OC)c(OC)c2)cc1OC` [Compound 3, bis(3,4-dimethoxyphenyl) disulfide], the “TEAC CUPRAC” value in [7] came to 0.06 ± 0.01.

In the case of `c1ccc(SSSc2ccccc2)cc1` [Compound 1, diphenyl trisulfide], the “TEAC CUPRAC” value in [7] is given as “non active”. In addition, the “LOOH, k0/k1 (relative rate constant of LOOH formation)” value in data set [8] is reported as 0.78 ± 0.15. Further, the “LOOH accumulation, % of inhibition” value in data set [8] (after 3 h incubation of oleic acid) is reported as 22.5%. In addition, the “TBARS, % Inhibition” value in [9] was 21.0 ± 0.18%.

Consider `COc1ccccc1SSc1ccccc1OC` [Compound 2, bis(2-methoxyphenyl) disulfide], for which the “TEAC CUPRAC” value in [7] is on record as “non active”. The “LOOH, k0/k1 (relative rate constant of LOOH formation)” value in [8] is recorded as 0.86 ± 0.11. In [9], the “TBARS, % Inhibition” value is 42.9 ± 0.76%.
